Data: PubChem BioAssay (NCI)
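These data come from cells grown in 96-well plates and exposed to compound for 48 hours at five concentrations. GI50: concentration for 50% inhibition of growth. Definition used: TGI = concentration required for complete inhibition of growth.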

Key:
Assay in all cases: NCI-60 cell line screen, 48 h
[1] = system: 786-0 renal
[2] = system: A498 renal
[3] = system: A549 NSCLC
[4] = system: ACHN renal
[5] = system: BT-549 breast
[6] = system: CAKI-1 renal
[7] = system: CCRF-CEM leukemia
[8] = system: COLO 205 colon
[9] = system: DU-145 prostate
[10] = system: EKVX NSCLC
[11] = system: HCC-2998 colon
[12] = system: HCT-116 colon
[13] = system: HCT-15 colon
[14] = system: HL-60(TB) leukemia
[15] = system: HOP-62 NSCLC
[16] = system: HOP-92 NSCLC
[17] = system: HS 578T breast
[18] = system: HT29 colon
[19] = system: IGROV1 ovarian
[20] = system: K-562 leukemia
[21] = system: KM12 colon
[22] = system: LOX IMVI melanoma
[23] = system: M14 melanoma
[24] = system: MALME-3M melanoma
[25] = system: MCF7 breast
[26] = system: MDA-MB-231 breast
[27] = system: MDA-MB-435
[28] = system: MOLT-4 leukemia
[29] = system: NCI-H226 lung
[30] = system: NCI-H23 lung
[31] = system: NCI-H460 lung
[32] = system: NCI-H522 lung
[33] = system: NCI/ADR-RES ovarian
[34] = system: OVCAR-3 ovarian
[35] = system: OVCAR-4 ovarian
[36] = system: OVCAR-5 ovarian
[37] = system: OVCAR-8 ovarian
[38] = system: PC-3 prostate
[39] = system: RPMI-8226 leukemia
[40] = system: RXF 393 renal
[41] = system: SF-268 CNS
[42] = system: SF-295 CNS
[43] = system: SF-539 CNS
[44] = system: SK-MEL-2 melanoma
[45] = system: SK-MEL-28 melanoma
[46] = system: SK-MEL-5 melanoma
[47] = system: SK-OV-3 ovarian
[48] = system: SN12C renal
[49] = system: SNB-19 CNS
[50] = system: SNB-75 CNS
[51] = system: SR leukemia
[52] = system: SW-620 colon
[53] = system: T-47D breast
[54] = system: TK-10 renal
[55] = system: U251 CNS
[56] = system: UACC-257 melanoma
[57] = system: UACC-62 melanoma
[58] = system: UO-31 renal

## CCN(CC)CCCC(C)Nc1ccnc2cc(Cl)c(SCc3ccccc3)cc12 (stereo unspecified)
[1]
  GI50: 1.47 µM
  TGI: 2.85 µM
[2]
  GI50: 1.22 µM
  TGI: 2.68 µM
[3]
  GI50: 1.85 µM
  TGI: 3.59 µM
[4]
  GI50: 1.3 µM
  TGI: 2.73 µM
[5]
  GI50: 1.78 µM
  TGI: 3.28 µM
[6]
  GI50: 1.19 µM
  TGI: 2.94 µM
[7]
  GI50: 0.442 µM
  TGI: 4.94 µM
[8]
  GI50: 1.04 µM
  TGI: 2.3 µM
[9]
  GI50: 3.45 µM
  TGI: 13.5 µM
[10]
  GI50: 1.93 µM
  TGI: 6.75 µM
[11]
  GI50: 0.511 µM
  TGI: 1.88 µM
[12]
  GI50: 0.516 µM
  TGI: 1.73 µM
[13]
  GI50: 0.417 µM
  TGI: 1.63 µM
[14]
  GI50: 1.81 µM
  TGI: 4.23 µM
[15]
  GI50: 1.37 µM
  TGI: 3.01 µM
[16]
  GI50: 1.14 µM
  TGI: 3.2 µM
[17]
  GI50: 1.97 µM
  TGI: 5.73 µM
[18]
  GI50: 0.338 µM
  TGI: 1.13 µM
[19]
  GI50: 1.81 µM
  TGI: 4.95 µM
[20]
  GI50: 0.266 µM
  TGI: 0.702 µM
[21]
  GI50: 1.43 µM
  TGI: 3.96 µM
[22]
  GI50: 0.199 µM
  TGI: 0.552 µM
[23]
  GI50: 0.189 µM
  TGI: 0.351 µM
[24]
  GI50: 1.71 µM
  TGI: 3.68 µM
[25]
  GI50: 0.506 µM
  TGI: 1.72 µM
[26]
  GI50: 1.27 µM
  TGI: 2.9 µM
[27]
  GI50: 0.275 µM
  TGI: 0.838 µM
[28]
  GI50: 0.623 µM
  TGI: 4.14 µM
[29]
  GI50: 2.71 µM
  TGI: 8.48 µM
[30]
  GI50: 1.55 µM
  TGI: 3.57 µM
[31]
  GI50: 1.77 µM
  TGI: 4.54 µM
[32]
  GI50: 0.58 µM
  TGI: 2.01 µM
[33]
  GI50: 1.44 µM
  TGI: 3.17 µM
[34]
  GI50: 2.31 µM
  TGI: 8.07 µM
[35]
  GI50: 1.53 µM
  TGI: 4.05 µM
[36]
  GI50: 1.73 µM
  TGI: 3.7 µM
[37]
  GI50: 1.73 µM
  TGI: 3.44 µM
[38]
  GI50: 1.72 µM
  TGI: 3.96 µM
[39]
  GI50: 0.633 µM
  TGI: 2.93 µM
[40]
  GI50: 1.42 µM
  TGI: 2.78 µM
[41]
  GI50: 1.59 µM
  TGI: 3.65 µM
[42]
  GI50: 1.32 µM
  TGI: 3.02 µM
[43]
  GI50: 0.626 µM
  TGI: 2.04 µM
[44]
  GI50: 1.64 µM
  TGI: 3.22 µM
[45]
  GI50: 1.15 µM
  TGI: 2.41 µM
[46]
  GI50: 1.31 µM
  TGI: 2.58 µM
[47]
  GI50: 1.93 µM
  TGI: 3.69 µM
[48]
  GI50: 1.7 µM
  TGI: 4.07 µM
[49]
  GI50: 1.78 µM
  TGI: 4.41 µM
[50]
  GI50: 1.66 µM
  TGI: 3.32 µM
[51]
  GI50: 0.173 µM
  TGI: 0.539 µM
[52]
  GI50: 0.928 µM
  TGI: 2.92 µM
[53]
  GI50: 1.98 µM
  TGI: 4.77 µM
[54]
  GI50: 0.512 µM
  TGI: 1.6 µM
[55]
  GI50: 1.08 µM
  TGI: 2.39 µM
[56]
  GI50: 0.781 µM
  TGI: 2.11 µM
[57]
  GI50: 0.214 µM
  TGI: 0.585 µM
[58]
  GI50: 1.35 µM
  TGI: 2.95 µM
